Assay results as given in ChEMBL document CHEMBL4261488, “Do GluN2B subunit containing NMDA receptors tolerate a fluorine atom in the phenylalkyl side chain?” (Medchemcomm, 2017).

Legend:
[1] = target: Glutamate receptor ionotropic, NMDA 2B (Homo sapiens, UniProt Q13224); experiment: Displacement of [3H]-ifenprodil from GluN2B receptor (unknown origin) expressed in mouse L (tk-) cell membranes after 120 mins by scintillation counting method
Sus scrofa = organism: Sus scrofa; experiment: Displacement of [3H]-(+)-MK-801 from PCP binding site of NMDA receptor in pig brain cortex membranes at 1 uM after 90 mins by scintillation counting method relative to control; assay type: cell membranes
[2] = Displacement of [3H]-di-o-tolylguanidine from sigma 2 receptor in rat liver membranes after 120 mins by scintillation counting analysis; assay type: cell membranes, Membrane
[3] = target: Sigma non-opioid intracellular receptor 1 (Cavia porcellus, UniProt Q60492); assay type: cell membranes, Brain, Membrane
Sequence of Sigma non-opioid intracellular receptor 1 (Q60492 whole entry): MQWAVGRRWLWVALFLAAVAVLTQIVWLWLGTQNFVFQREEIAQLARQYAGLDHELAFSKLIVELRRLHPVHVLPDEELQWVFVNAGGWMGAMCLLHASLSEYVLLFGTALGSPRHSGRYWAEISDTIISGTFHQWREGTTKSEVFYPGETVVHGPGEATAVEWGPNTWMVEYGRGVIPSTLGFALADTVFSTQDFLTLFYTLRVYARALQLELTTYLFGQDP

Sequence of Glutamate receptor ionotropic, NMDA 2B (Q13224 whole entry): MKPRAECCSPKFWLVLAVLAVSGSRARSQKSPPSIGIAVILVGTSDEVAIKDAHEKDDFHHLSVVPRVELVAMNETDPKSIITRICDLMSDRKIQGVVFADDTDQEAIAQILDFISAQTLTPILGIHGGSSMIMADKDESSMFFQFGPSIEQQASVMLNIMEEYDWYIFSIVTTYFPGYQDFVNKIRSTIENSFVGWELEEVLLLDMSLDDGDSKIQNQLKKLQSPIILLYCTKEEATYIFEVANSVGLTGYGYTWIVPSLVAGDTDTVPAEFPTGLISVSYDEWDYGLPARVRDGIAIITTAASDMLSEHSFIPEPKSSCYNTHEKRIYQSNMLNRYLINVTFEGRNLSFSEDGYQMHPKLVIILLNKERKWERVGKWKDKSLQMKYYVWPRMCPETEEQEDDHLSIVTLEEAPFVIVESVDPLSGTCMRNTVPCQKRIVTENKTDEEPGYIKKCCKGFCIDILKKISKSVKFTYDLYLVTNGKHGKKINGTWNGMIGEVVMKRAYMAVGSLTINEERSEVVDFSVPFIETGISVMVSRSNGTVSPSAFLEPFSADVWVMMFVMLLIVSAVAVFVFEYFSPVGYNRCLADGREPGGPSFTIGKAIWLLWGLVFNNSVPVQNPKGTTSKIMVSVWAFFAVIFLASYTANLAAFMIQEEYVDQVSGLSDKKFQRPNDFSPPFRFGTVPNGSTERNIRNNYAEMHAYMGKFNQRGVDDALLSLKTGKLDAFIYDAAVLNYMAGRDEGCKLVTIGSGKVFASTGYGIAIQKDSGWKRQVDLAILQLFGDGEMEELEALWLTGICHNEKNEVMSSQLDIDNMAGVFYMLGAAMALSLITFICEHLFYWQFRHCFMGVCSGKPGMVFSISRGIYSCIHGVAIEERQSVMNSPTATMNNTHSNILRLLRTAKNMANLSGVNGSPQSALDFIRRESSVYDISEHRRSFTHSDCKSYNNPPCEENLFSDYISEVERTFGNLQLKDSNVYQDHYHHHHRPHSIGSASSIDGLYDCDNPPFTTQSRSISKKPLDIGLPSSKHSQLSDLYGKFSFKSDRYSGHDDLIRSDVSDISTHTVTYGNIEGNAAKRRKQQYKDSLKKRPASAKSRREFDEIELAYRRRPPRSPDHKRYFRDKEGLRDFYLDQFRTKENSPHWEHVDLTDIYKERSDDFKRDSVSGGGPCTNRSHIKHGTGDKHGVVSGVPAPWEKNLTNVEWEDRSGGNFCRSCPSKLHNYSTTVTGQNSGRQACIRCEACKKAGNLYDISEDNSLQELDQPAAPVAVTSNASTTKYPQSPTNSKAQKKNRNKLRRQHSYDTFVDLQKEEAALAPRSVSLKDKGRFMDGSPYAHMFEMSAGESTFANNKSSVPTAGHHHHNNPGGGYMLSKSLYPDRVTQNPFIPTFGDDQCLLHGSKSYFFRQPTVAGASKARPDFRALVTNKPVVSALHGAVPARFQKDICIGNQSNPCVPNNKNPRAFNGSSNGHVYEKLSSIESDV

Row | Structure (SMILES) | Ki [1] | inhibition (Sus scrofa) | Ki [2] | Ki [3]
1 | FC(CCc1ccccc1)CNC1CCc2ccccc2CC1 (stereo not given) | 27 nM | 3% | 19 nM | 82 nM
2 | FC(CNC1CCc2ccccc2CC1)Cc1ccccc1 (stereo not given) | 17 nM | 2% | 14 nM | 54 nM
3 | COc1ccc2c(c1)CCC(NCCCc1ccccc1)CC2 (stereo not given) | 11 nM |  |  | 
4 | COc1ccc2c(c1)CC[C@H](NCCCc1ccccc1)C[C@@H]2O (relative stereo) | 16 nM |  |  | 
